molecular target: CXCR3 (Macaca fascicularis, UniProt A0A2K5UV19); test: functional cellular assay measuring calcium flux in CXCR3 transfected cells (block of CXCR3/IP-10 interaction); assay type: cell-based; conditions: IP-10 induced intracellular calcium flux; Cyno-CHO cells stably expressing recombinant CXCR3 and G-alpha-16
In short: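 Cyno-CHO cells stably co-expressing recombinant CXCR3 and G-alpha-16, loaded with Ca-4 dye (HBSS, 10 mM HEPES pH 7.4, 2 mM probenecid) for 1 h at 37 °C. Compound (10 microM final) preincubated 15 min at room temperature, then IP-10 added at EC80. Intracellular calcium flux read by fluorescence (ex 480/em 540 nm).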

Sequence of CXCR3 (A0A2K5UV19 entry or part of it): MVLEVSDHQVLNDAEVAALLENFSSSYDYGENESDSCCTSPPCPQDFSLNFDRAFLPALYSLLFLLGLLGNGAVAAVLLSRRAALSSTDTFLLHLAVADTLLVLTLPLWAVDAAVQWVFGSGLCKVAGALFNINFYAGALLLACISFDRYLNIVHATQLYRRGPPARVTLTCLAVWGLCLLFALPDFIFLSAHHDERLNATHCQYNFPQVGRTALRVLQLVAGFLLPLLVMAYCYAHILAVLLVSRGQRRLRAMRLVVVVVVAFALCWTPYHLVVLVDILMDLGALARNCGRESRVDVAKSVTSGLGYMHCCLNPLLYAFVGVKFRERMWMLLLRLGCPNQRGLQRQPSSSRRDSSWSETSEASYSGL

IC50 [nM]	SMILES
4.8	Cc1cc(C)n(CC(=O)N2CCN(c3ccccc3C(=O)Nc3cc(C(C)(C)C)n[nH]3)CC2)n1 [N-(5-tert-Butyl-2H-pyrazol-3-yl)-2-{4-[2-(3,5-dimethyl-pyrazol-1-yl)-acetyl]-piperazin-1-yl}-benzamide]
17	Cc1cc(C)n(CC(=O)N2CCN(c3ccccc3C(=O)Nc3nc4cc(Cl)ccc4s3)CC2)n1 [N-(5-Chloro-benzothiazol-2-yl)-2-{4-[2-(3,5-dimethyl-pyrazol-1-yl)-acetyl]-piperazin-1-yl}-benzamide]
11.5	Cc1cc(C)n(CC(=O)N2CCN(c3ccccc3C(=O)Nc3cnc4c(c3)c(=O)n(C)c(=O)n4C)CC2)n1 [N-(1,3-Dimethyl-2,4-dioxo-1,2,3,4-tetrahydro-pyrido[2,3-d]pyrimidin-6-yl)-2-{4-[2-(3,5-dimethyl-pyrazol-1-yl)-acetyl]-piperazin-1-yl}-benzamide]
7.8	O=C(Nc1ccnc(OCC(F)(F)F)c1)c1ccccc1N1CCN(C(=O)CN2CCCCC2=O)CC1 [2-{4-[2-(2-Oxo-piperidin-1-yl)-acetyl]-piperazin-1-yl}-N-[2-(2,2,2-trifluoro-ethoxy)-pyridin-4-yl]-benzamide]
18	Cc1cc(C)n(CC(=O)N2CCN(c3ccccc3C(=O)Nc3nc(C(F)(F)F)cs3)CC2)n1 [2-{4-[2-(3,5-Dimethyl-pyrazol-1-yl)-acetyl]-piperazin-1-yl}-N-(4-trifluoromethyl-thiazol-2-yl)-benzamide]
17	Cc1cc(C)n(CC(=O)N2CCN(c3ccccc3C(=O)Nc3ccnnc3)CC2)n1 [2-{4-[2-(3,5-Dimethyl-pyrazol-1-yl)-acetyl]-piperazin-1-yl}-N-pyridazin-4-yl-benzamide]
2.9	CN1CCc2nc(NC(=O)c3ccccc3N3CCN(C(=O)CN4Cc5ccccc5C4=O)CC3)sc2C1 [N-(5-Methyl-4,5,6,7-tetrahydro-thiazolo[5,4-c]pyridin-2-yl)-2-{4-[2-(1-oxo-1,3-dihydro-isoindol-2-yl)-acetyl]-piperazin-1-yl}-benzamide]
9.7	COc1cc(NC(=O)c2cc(F)ccc2N2CCN(C(=O)Cn3nc(C)cc3C)CC2)ccn1 [2-{4-[2-(3,5-Dimethyl-pyrazol-1-yl)-acetyl]-piperazin-1-yl}-5-fluoro-N-(2-methoxy-pyridin-4-yl)-benzamide]
5.7	COc1ccc(NC(=O)c2ccccc2N2CCN(C(=O)Cn3ccc4cccnc43)CC2)cn1 [N-(6-Methoxy-pyridin-3-yl)-2-[4-(2-pyrrolo[2,3-b]pyridin-1-yl-acetyl)-piperazin-1-yl]-benzamide]
10	Cc1cc(C)n(CC(=O)N2CCN(c3ccccc3C(=O)Nc3cc(C(C)(C)C)ns3)CC2)n1 [N-(3-tert-Butyl-isothiazol-5-yl)-2-{4-[2-(3,5-dimethyl-pyrazol-1-yl)-acetyl]-piperazin-1-yl}-benzamide]
13	Cc1cc(C)n(CC(=O)N2CCN(c3ccccc3C(=O)Nc3nc4c(Cl)cccc4s3)CC2)n1 [N-(4-Chloro-benzothiazol-2-yl)-2-{4-[2-(3,5-dimethyl-pyrazol-1-yl)-acetyl]-piperazin-1-yl}-benzamide]
6.1	O=C(Nc1ccncc1)c1ccccc1N1CCN(C(=O)Cn2ncc3ccccc3c2=O)CC1 [2-{4-[2-(1-Oxo-1H-phthalazin-2-yl)-acetyl]-piperazin-1-yl}-N-pyridin-4-yl-benzamide]
13	Cc1cc(C)n(CC(=O)N2CCN(c3ccccc3C(=O)Nc3ccccc3)CC2)n1 [2-{4-[2-(3,5-Dimethyl-pyrazol-1-yl)-acetyl]-piperazin-1-yl}-N-phenyl-benzamide]
6.6	Cc1cc(C)n(CC(=O)N2CCN(c3ccccc3C(=O)Nc3cccnc3)CC2)n1 [2-{4-[2-(3,5-Dimethyl-pyrazol-1-yl)-acetyl]-piperazin-1-yl}-N-pyridin-3-yl-benzamide]
14	Cc1cc(C)n(CC(=O)N2CCN(c3ccccc3C(=O)Nc3cnc(C)c(F)c3)CC2)n1 [2-{4-[2-(3,5-Dimethyl-pyrazol-1-yl)-acetyl]-piperazin-1-yl}-N-(5-fluoro-6-methyl-pyridin-3-yl)-benzamide]
12	Cc1cc(C)n(CC(=O)N2CCN(c3ccccc3C(=O)Nc3ccnc(C(F)(F)F)c3)CC2)n1 [2-{4-[2-(3,5-Dimethyl-pyrazol-1-yl)-acetyl]-piperazin-1-yl}-N-(2-trifluoromethyl-pyridin-4-yl)-benzamide]
8.9	O=C(Nc1cc(Cl)cnc1N1CCN(C(=O)Cn2ccc3cccnc32)CC1)c1cccc(C(F)(F)F)c1 [N-{5-Chloro-2-[4-(2-pyrrolo[2,3-b]pyridin-1-yl-acetyl)-piperazin-1-yl]-pyridin-3-yl}-3-trifluoromethyl-benzamide]

The next lines start with the compound.

SMILES	IC50 [nM]
Cc1nn(C)c(C)c1CC(=O)N1CCN(c2ccccc2C(=O)Nc2ccncc2)CC1 [N-Pyridin-4-yl-2-{4-[2-(1,3,5-trimethyl-1H-pyrazol-4-yl)-acetyl]-piperazin-1-yl}-benzamide]	19.5
Cc1cc(C)n(CC(=O)N2CCN(c3ccccc3C(=O)Nc3cccc(C#N)c3)CC2)n1 [N-(3-Cyano-phenyl)-2-{4-[2-(3,5-dimethyl-pyrazol-1-yl)-acetyl]-piperazin-1-yl}-benzamide]	4.5
Cc1cc(C)n(CC(=O)N2CCN(c3ccccc3C(=O)Nc3ccccc3F)CC2)n1 [2-{4-[2-(3,5-Dimethyl-pyrazol-1-yl)-acetyl]-piperazin-1-yl}-N-(2-fluoro-phenyl)-benzamide]	5.5
COc1ccc(C(=O)NCC(=O)N2CCN(c3ccccc3C(=O)Nc3cccnc3)CC2)cc1C [4-Methoxy-3-methyl-N-(2-oxo-2-{4-[2-(pyridin-3-ylcarbamoyl)-phenyl]-piperazin-1-yl}-ethyl)-benzamide]	11
COc1ccc(C(=O)NCC(=O)N2CCN(c3ncc(Cl)cc3NC(=O)c3cccc(C(F)(F)F)c3)CC2)cc1OC [N-(2-{4-[5-Chloro-3-(3-trifluoromethyl-benzoylamino)-pyridin-2-yl]-piperazin-1-yl}-2-oxo-ethyl)-3,4-dimethoxy-benzamide]	8.8
Cc1cc(C(=O)NCC(=O)N2CCN(c3ccccc3C(=O)Nc3cccnc3)CC2)nn1C [1,5-Dimethyl-1H-pyrazole-3-carboxylic acid (2-oxo-2-{4-[2-(pyridin-3-ylcarbamoyl)-phenyl]-piperazin-1-yl}-ethyl)-amide]	20
Cc1cc(C)n(CC(=O)N2CCN(c3ccccc3C(=O)Nc3cccc(S(C)(=O)=O)c3)CC2)n1 [2-{4-[2-(3,5-Dimethyl-pyrazol-1-yl)-acetyl]-piperazin-1-yl}-N-(3-methanesulfonyl-phenyl)-benzamide]	19
Cc1cc(C)n(CC(=O)N2CCN(c3ccccc3C(=O)Nc3nc4c(s3)CN(C)CC4)CC2)n1 [2-{4-[2-(3,5-Dimethyl-pyrazol-1-yl)-acetyl]-piperazin-1-yl}-N-(5-methyl-4,5,6,7-tetrahydro-thiazolo[5,4-c]pyridin-2-yl)-benzamide]	9.7
Cc1cc(C)n(CC(=O)N2CCN(c3ccccc3C(=O)Nc3cc(C4CCCCC4)no3)CC2)n1 [N-(3-Cyclohexyl-isoxazol-5-yl)-2-{4-[2-(3,5-dimethyl-pyrazol-1-yl)-acetyl]-piperazin-1-yl}-benzamide]	8.3
Cc1cc(C)n(CC(=O)N2CCN(c3ccccc3C(=O)Nc3cncc(O)c3)CC2)n1 [2-{4-[2-(3,5-Dimethyl-pyrazol-1-yl)-acetyl]-piperazin-1-yl}-N-(5-hydroxy-pyridin-3-yl)-benzamide]	12.5
Cc1cc(C)n(CC(=O)N2CCN(c3ccccc3C(=O)Nc3ccncc3)CC2)n1 [2-{4-[2-(3,5-Dimethyl-pyrazol-1-yl)-acetyl]-piperazin-1-yl}-N-pyridin-4-yl-benzamide]	4.7
Cc1cc(C)n(CC(=O)N2CCN(c3ccccc3C(=O)Nc3cnc(-c4ccccc4)nc3)CC2)n1 [2-{4-[2-(3,5-Dimethyl-pyrazol-1-yl)-acetyl]-piperazin-1-yl}-N-(2-phenyl-pyrimidin-5-yl)-benzamide]	10.5
Cc1cc(C)n(CC(=O)N2CCN(c3ccccc3C(=O)Nc3cc(-c4ccccc4)no3)CC2)n1 [2-{4-[2-(3,5-Dimethyl-pyrazol-1-yl)-acetyl]-piperazin-1-yl}-N-(3-phenyl-isoxazol-5-yl)-benzamide]	8.8
COc1cc(NC(=O)c2ccccc2N2CCN(C(=O)Cn3nc(C)cc3C)CC2)ccn1 [2-{4-[2-(3,5-Dimethyl-pyrazol-1-yl)-acetyl]-piperazin-1-yl}-N-(2-methoxy-pyridin-4-yl)-benzamide]	8.5
Cn1cccc1C(=O)NCC(=O)N1CCN(c2ccccc2C(=O)Nc2ccncc2)CC1 [1-Methyl-1H-pyrrole-2-carboxylic acid (2-oxo-2-{4-[2-(pyridin-4-ylcarbamoyl)-phenyl]-piperazin-1-yl}-ethyl)-amide]	4.2
Cc1cc(C)n(CC(=O)N2CCN(c3ccccc3C(=O)Nc3cccc(Cl)c3)CC2)n1 [N-(3-Chloro-phenyl)-2-{4-[2-(3,5-dimethyl-pyrazol-1-yl)-acetyl]-piperazin-1-yl}-benzamide]	3.3
Cc1cc(C)n(CC(=O)N2CCN(c3ccccc3C(=O)Nc3ccnc(C(C)(C)C)c3)CC2)n1 [N-(2-tert-Butyl-pyridin-4-yl)-2-{4-[2-(3,5-dimethyl-pyrazol-1-yl)-acetyl]-piperazin-1-yl}-benzamide]	8.5
Cc1ccc(NC(=O)c2ccccc2N2CCN(C(=O)Cn3nc(C)cc3C)CC2)cn1 [2-{4-[2-(3,5-Dimethyl-pyrazol-1-yl)-acetyl]-piperazin-1-yl}-N-(6-methyl-pyridin-3-yl)-benzamide]	5.3
Cc1cc(C)n(CC(=O)N2CCN(c3ccccc3NC(=O)c3cncc(Br)c3)CC2)n1 [5-Bromo-N-(2-{4-[2-(3,5-dimethyl-pyrazol-1-yl)-acetyl]-piperazin-1-yl}-phenyl)-nicotinamide]	5.7
Cc1nn(-c2ccccc2)c(C)c1CC(=O)N1CCN(c2ccccc2C(=O)Nc2ccncc2)CC1 [2-{4-[2-(3,5-Dimethyl-1-phenyl-1H-pyrazol-4-yl)-acetyl]-piperazin-1-yl}-N-pyridin-4-yl-benzamide]	16

Reference: patent US8362249B2, “CXCR3 receptor antagonists” (Boehringer Ingelheim International GmbH, priority 2009, dated 2013)
